Results: ChEMBL document CHEMBL1127162, “1,4-Diacylpiperazine-2-(S)-[(N-aminoalkyl)carboxamides] as novel, potent substance P receptor antagonists” (Bioorg Med Chem Lett, 1993)

These compounds were tested against Substance-P receptor (Homo sapiens, UniProt P25103) (assay: Inhibition of [125I]-Substance P binding to human NK1 receptors in CHO cells).
Format: cell-based

Sequence of Substance-P receptor (P25103 whole entry): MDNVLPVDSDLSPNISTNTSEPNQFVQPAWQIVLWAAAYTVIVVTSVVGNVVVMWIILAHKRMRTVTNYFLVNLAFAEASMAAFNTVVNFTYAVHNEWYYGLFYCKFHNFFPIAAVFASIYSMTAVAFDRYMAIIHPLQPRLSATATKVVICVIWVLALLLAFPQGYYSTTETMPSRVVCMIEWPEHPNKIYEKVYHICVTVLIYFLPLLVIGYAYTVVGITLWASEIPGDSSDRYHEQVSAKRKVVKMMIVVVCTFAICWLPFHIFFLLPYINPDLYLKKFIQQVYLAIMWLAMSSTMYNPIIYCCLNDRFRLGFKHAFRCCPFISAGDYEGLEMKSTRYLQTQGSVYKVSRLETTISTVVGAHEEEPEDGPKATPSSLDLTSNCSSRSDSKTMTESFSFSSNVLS

Compound | IC50 [nM]
CCCCCN(CCCCC)C(=O)N1CCN(C(=O)N(c2ccccc2)c2ccccc2)[C@H](CO)C1 | 280
CCCCCN(CCCCC)C(=O)N1CCN(C(=O)N(c2ccccc2)c2ccccc2)[C@H](C(=O)N(C)CCN(C)Cc2ccccc2)C1 | 290
CCCCCN(CCCCC)C(=O)N1CCN(C(=O)N(c2ccccc2)c2ccccc2)[C@H](C(=O)NCCNC(C)=O)C1 | 140
CCCCCN(CCCCC)C(=O)N1CCN(C(=O)N(c2ccccc2)c2ccccc2)[C@H](C(=O)N(C)CCN(C)C)C1 | 930
CCCCCN(CCCCC)C(=O)N1CCN(C(=O)N(c2ccccc2)c2ccccc2)[C@H](C(=O)N(C)CCN(C)Cc2ccccc2OC)C1 | 17
CCCCCN(CCCCC)C(=O)N1CCN(C(=O)N(c2ccccc2)c2ccccc2)[C@H](C(=O)NCCN(C(C)C)C(C)C)C1 | 217
CCCCCN(CCCCC)C(=O)N1CCN(C(=O)N(c2ccccc2)c2ccccc2)CC1 | 500
CCCCCN(CCCCC)C(=O)N1CCN(C(=O)N(c2ccccc2)c2ccccc2)[C@@H](C(=O)O)C1 | 3000
CCCCCN(CCCCC)C(=O)N1CCN(C(=O)N(c2ccccc2)c2ccccc2)[C@H](C(=O)NCC(=O)O)C1 | 597
CCCCCN(CCCCC)C(=O)N1CCN(C(=O)N(c2ccccc2)c2ccccc2)[C@H](C(=O)NCCNCc2ccccc2OC)C1 | 9
CCCCCN(CCCCC)C(=O)N1CCN(C(=O)N(c2ccccc2)c2ccccc2)[C@H](C(=O)NCCN(CC)CC)C1 | 11
CCCCCN(CCCCC)C(=O)N1CCN(C(=O)N(c2ccccc2)c2ccccc2)[C@H](C(=O)NCCN(C)Cc2ccccc2OC)C1 | 9

Continued by falling IC50, values first:

IC50 [nM] | Compound
1080 | CCCCCN(CCCCC)C(=O)N1CCN(C(=O)N(c2ccccc2)c2ccccc2)[C@H](C(=O)N(C)CCN(C)Cc2cc(C(F)(F)F)cc(C(F)(F)F)c2)C1
267 | CCCCCN(CCCCC)C(=O)N1CCN(C(=O)N(c2ccccc2)c2ccccc2)[C@H](C(=O)NCCOC)C1
200 | CCCCCN(CCCCC)C(=O)N1CCN(C(=O)N(c2ccccc2)c2ccccc2)[C@H](C(=O)N(C)CCN(C)Cc2cc(C)cc(C)c2)C1
130 | CCCCCN(CCCCC)C(=O)N1CCN(C(=O)N(c2ccccc2)c2ccccc2)[C@H](C(=O)O)C1
57 | CCCCCN(CCCCC)C(=O)N1CCN(C(=O)N(c2ccccc2)c2ccccc2)[C@H](C(=O)NCCN)C1
55 | CCCCCN(CCCCC)C(=O)N1CCN(C(=O)N(c2ccccc2)c2ccccc2)[C@H](C(=O)NCCN(C)C)C1
41 | CCCCCN(CCCCC)C(=O)N1CCN(C(=O)N(c2ccccc2)c2ccccc2)[C@H](C(=O)NCCCN(CC)CC)C1
